{"source": "paper PMC9523135", "about": "“Apamin structure and pharmacology revisited” (Frontiers in Pharmacology, 2022)", "key": {"E. faecalis": {"tested_on": "E. faecalis", "assay": "Antimicrobial assay, microtitre broth dilution, E. faecalis", "format": "cell-based, Enterococcus faecalis ATCC 29212", "conditions": "lowest concentration causing 100% growth inhibition; 24 h, 37°C; n = 5", "procedure": "Apamin was tested against Gram-positive (Enterococcus faecalis ATCC 29212, Staphylococcus aureus subsp. aureus ATCC 29213) and Gram-negative bacteria (Escherichia coli ATCC 25922, Pseudomonas aeruginosa ATCC 27853) following the previously described modification of the microtitre broth dilution method ([Vassilevski et al., 2010]). Those bacterial strains were also subjected to the treatment by melittin in the same concentration range to serve as a positive control.\nBriefly, bacteria were cultured in a low-salt LB medium. The two-fold microtitre broth dilution assay was carried out in 96-well sterile plates in a final volume of 100 μL. Mid-exponential-phase cultures were diluted to a final concentration of 10^5 colony-forming units·ml^−1. Pure peptides were dissolved in 10 μL of water and added to 90 μL of the bacterial dilution. The samples, a non-treated control and a sterility control were tested in five independent experiments (n = 5). The microtitre plates were incubated for 24 h at 37°C, and growth inhibition was determined by measuring the absorbance at 620 nm. Minimum inhibitory concentration (MIC) is expressed as the lowest concentration of peptide that caused 100% bacterial growth inhibition."}, "KCa3.1": {"tested_on": "KCa3.1", "assay": "Patch-clamp, HEK293 cells expressing hKCa3.1 (IK)", "format": "cell-based, human", "conditions": "1 µM TRAM-34", "procedure": "(§1) HEK293 cells stably expressing hKCa1.1 (BK, GenBank accession number: NM_002247), hKCa2.1 (SK1, NM_002248), and hKCa3.1 (IK, AH009923) or COS7 cells stably expressing hKCa2.3 (SK3, AJ251016) were generated and cultured as previously described ([Sankaranarayanan et al., 2009]). HEK293 cells stably expressing rKCa2.2 (SK2, NM_019314) were a gift from Dr. Mio Zhang (Chapman University, Irvine).\n(§2) All experiments were conducted with an EPC-10 amplifier (HEKA) in the whole-cell configuration with a holding potential of –80 mV. Pipette resistances averaged around 2.5 MΩ. […] Free Ca^2+ concentrations were calculated with MaxChelator (developed by Chris Patton, Stanford University) assuming a temperature of 25°C, pH 7.2, and ionic strength of 160 mM. […] Please note that the provided concentrations are what was weighed in to achieve an initially hyperosmolar solution that was diluted with water to 310 mOsm for the internal and 315 mOsm for the external solution as measured with a VAPRO Vapor pressure osmometer (Wescor). […]\n(§3) KCa2 and KCa3.1 currents were elicited by 200-ms voltage ramps from –120 to 40 mV applied every 10 s, and the fold decrease of slope conductance at –80 mV was taken as a measure of apamin-induced channel inhibition. […] KCa1.1 channel activity was recorded with a step protocol, in which cells were stepped to +40 mV for 100 ms at 30-s intervals. […]"}, "KCa2.1": {"target": "T1, KCa2.1 (Homo sapiens, UniProt Q92952)", "T1 construct": "expressed in transfected cells", "T1 sequence (Q92952 whole entry)": "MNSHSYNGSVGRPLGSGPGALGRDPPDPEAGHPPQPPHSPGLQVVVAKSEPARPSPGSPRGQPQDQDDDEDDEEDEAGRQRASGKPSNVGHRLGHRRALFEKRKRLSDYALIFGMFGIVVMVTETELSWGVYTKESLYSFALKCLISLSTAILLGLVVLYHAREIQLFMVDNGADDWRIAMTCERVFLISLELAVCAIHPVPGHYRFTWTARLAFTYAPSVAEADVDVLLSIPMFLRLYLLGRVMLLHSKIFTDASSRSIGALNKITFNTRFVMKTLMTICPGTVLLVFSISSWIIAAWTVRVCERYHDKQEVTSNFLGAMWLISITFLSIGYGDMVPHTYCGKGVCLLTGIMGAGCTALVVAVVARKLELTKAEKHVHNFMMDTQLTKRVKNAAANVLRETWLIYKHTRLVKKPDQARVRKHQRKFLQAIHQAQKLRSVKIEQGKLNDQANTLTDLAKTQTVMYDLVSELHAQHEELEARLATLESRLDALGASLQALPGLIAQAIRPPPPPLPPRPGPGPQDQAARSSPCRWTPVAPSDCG", "assay": "Patch-clamp, HEK293 cells expressing hKCa2.1 (SK1)", "format": "cell-based", "conditions": "voltage ramps –120 to 40 mV, slope conductance at –80 mV, 1 μM free Ca^2+ internal; Hill fit, n ≥ 5; 95% CI 3.3–5.0 nM", "procedure": "as §1, §2, §3"}, "mice": {"tested_on": "mice", "conditions": "cited from earlier work", "excerpt": "The symptoms are apparently of central origin because the toxicity increases by a factor of 1,000–10,000 and the progression of poisoning is faster in case of i.c.v. injection, but the clinical picture stays the same ([Habermann, 1977], [Habermann, 1984])."}, "KV11.1": {"tested_on": "KV11.1", "assay": "Two-electrode voltage-clamp, X. laevis oocytes, hKV11.1 (hERG)", "format": "cell-based, human", "design": "key to effect on current: N.E.: no effect at 5 μM concentration", "conditions": "5 μM apamin, n = 5", "procedure": "Linearized plasmids bearing the ion channel genes were transcribed using the mMESSAGE mMACHINE SP6 or T7 transcription kits (Ambion) to prepare the respective cRNA. The harvesting of stage V–VI oocytes from anaesthetized female X. laevis frogs was described previously ([Liman et al., 1992]; [Peigneur et al., 2021]). Oocytes were injected with 50 nL of cRNA at a concentration of 1 ng nl^−1 using a microinjector (Drummond Scientific). The oocytes were incubated at 16°C in ND96 solution containing (in mM): NaCl, 96; KCl, 2; CaCl2, 1.8; MgCl2, 2; and HEPES, 5 (pH 7.4), supplemented with 50 mg l^−1 gentamicin sulfate.\nRecordings were performed at room temperature (18°C–22°C) using a Geneclamp 500 amplifier (Molecular Devices) controlled by a pClamp data acquisition system (Axon Instruments). Whole-cell currents from oocytes were recorded 1–4 days after cRNA injection. Bath solution composition was ND96, or HK containing (in mM): NaCl, 2; KCl, 96; CaCl2, 1.8; MgCl2, 2; and HEPES, 5 (pH 7.4). Voltage and current electrodes were filled with 3 M KCl. […]\nCurrents were evoked by a 100 ms (NaV) or 500 ms (KV) depolarization to the voltage corresponding to the maximal activation of the channels in control conditions from a holding potential of −90 mV. […] TRP currents were measured in ND96 at −90 mV during 400 s. […] Peak current amplitude was measured prior to and following the application of the peptide. […]"}, "KCa2": {"tested_on": "KCa2", "conditions": "Kalium database; ref Kuzmenkov et al., 2016; Tabakmakher et al., 2019; cited from earlier work", "excerpt": "(§4) According to the Kalium database (https://kaliumdb.org) ([Kuzmenkov et al., 2016]; [Tabakmakher et al., 2019]), six of these substances were identified in scorpion venom (AmP05, maurotoxin, Pi-1, scyllatoxin, tamapin, and Ts9). […] Intere ..."}, "KCa2.2": {"tested_on": "KCa2.2", "conditions": "cited from earlier work", "excerpt": "as §4"}}, "note": "Like-named read-outs stand apart in the source and are kept apart here."}
{"molecule": "CC[C@H](C)[C@H](NC(=O)CN)C(=O)NCC(=O)N[C@@H](C)C(=O)N[C@H](C(=O)N[C@@H](CC(C)C)C(=O)N[C@@H](CCCCN)C(=O)N[C@H](C(=O)N[C@@H](CC(C)C)C(=O)N[C@H](C(=O)N[C@H](C(=O)NCC(=O)N[C@@H](CC(C)C)C(=O)N1CCC[C@H]1C(=O)N[C@@H](C)C(=O)N[C@@H](CC(C)C)C(=O)N[C@H](C(=O)N[C@@H](CO)C(=O)N[C@@H](Cc1c[nH]c2ccccc12)C(=O)N[C@H](C(=O)N[C@@H](CCCCN)C(=O)N[C@@H](CCCNC(=N)N)C(=O)N[C@@H](CCCCN)C(=O)N[C@@H](CCCNC(=N)N)C(=O)N[C@@H](CCC(N)=O)C(=O)N[C@@H](CCC(N)=O)C(N)=O)[C@@H](C)CC)[C@@H](C)CC)[C@@H](C)O)[C@@H](C)O)C(C)C)C(C)C", "note": "[Melittin]", "values": [{"measurement": "MIC", "setting": "E. faecalis", "result": 0.5, "unit": "µM"}]}
{"molecule": "Clc1ccccc1C(c1ccccc1)(c1ccccc1)n1cccn1", "note": "[TRAM-34]", "values": [{"measurement": "block of KCa3.1 currents", "setting": "KCa3.1", "result": "potently blocked"}]}
{"molecule": "CC(C)C[C@@H]1NC(=O)[C@H](C)NC(=O)[C@H]([C@@H](C)O)NC(=O)[C@H](CCC(=O)O)NC(=O)[C@@H]2CCCN2C(=O)[C@H](C)NC(=O)[C@H](CCCCN)NC(=O)[C@@H]2CSSC[C@@H](C(=O)N[C@@H](CCC(N)=O)C(=O)N[C@@H](CCC(N)=O)C(=O)N[C@@H](Cc3cnc[nH]3)C(N)=O)NC(=O)[C@H](CCCNC(=N)N)NC(=O)[C@H](CCCNC(=N)N)NC(=O)[C@H](C)NC(=O)[C@H](CSSC[C@H](N)C(=O)N[C@@H](CC(N)=O)C(=O)N2)NC1=O", "note": "[apamin]", "values": [{"measurement": "IC50", "setting": "KCa2.1", "result": 4.1, "unit": "nM"}, {"measurement": "factor of toxicity increase on i.c.v. injection", "setting": "mice; i.c.v. compared with i.v., ref Habermann, 1977, 1984", "result": "1,000–10,000"}, {"measurement": "LD50", "setting": "mice; i.v., ref Habermann and Reiz, 1965, 1972", "result": "≈ 4 mg kg^−1"}, {"measurement": "symptoms when injected into mice", "setting": "mice; ref Habermann and Reiz, 1965, 1972", "result": "muscle spasms, jerks, and convulsions"}, {"measurement": "current ratio (Iapamin/Icontrol)", "setting": "KV11.1; mean ± SD", "result": "1.07 ± 0.06"}, {"measurement": "effect on current", "setting": "KV11.1", "result": "N.E."}]}
{"molecule": "maurotoxin (VSCTGSKDCYAPCRKQTGCPNAKCINKSCKCYGC; UniProt P80719 1-34, looked up)", "values": [{"measurement": "affinity on KCa2", "setting": "KCa2", "result": "high (nanomolar) affinity"}]}
{"molecule": "scyllatoxin: scorpion toxin from Leiurus quinquestriatus hebraeus (AFCNLRMCQLSCRSLGLLGKCIGDKCECVKH; UniProt P16341 1-31, looked up)", "values": [{"measurement": "affinity on KCa2", "setting": "KCa2", "result": "high (nanomolar) affinity"}, {"measurement": "IC50 range in words", "setting": "KCa2.2; ref Shakkottai et al., 2001", "result": "subnanomolar range"}]}
{"molecule": "tamapin: scorpion toxin from Mesobuthus tamulus (AFCNLRRCELSCRSLGLLGKCIGEECKCVPY; UniProt P59869 1-31, looked up)", "values": [{"measurement": "affinity on KCa2", "setting": "KCa2", "result": "high (nanomolar) affinity"}, {"measurement": "IC50 range in words", "setting": "KCa2.2; ref Pedarzani et al., 2002", "result": "subnanomolar range"}]}
